Results taken from patent publication US20040254136A1, “Antisense oligonucleotides and related methods for regulating cell death” (priority 2001, published 2004).
Entries after “also recorded” stand apart in the source; their conditions may differ.

Columns and labels:
[1] = tested on: wild-type sympathetic neurons; assay: Survival of NGF-deprived (TFD) wild-type sympathetic neurons; type: cell-based, mouse; conditions: for protection from TFD-induced death (survival): anti-NGF, BAF 50 μM, DEVD-FMK 10 μM; for protection from NGF withdrawal (survival): anti-NGF plus antisense oligonucleotides, scored daily for three days
Description: (§1) Sympathetic neuron cultures were prepared from 1-day-old wild-type and caspase-2−/− mouse pups (Bergeron et al. 1998). Cultures were grown in 24-well collagen-coated dishes for survival experiments and in 6-well collagen-coated dishes for RNA and protein extraction in RPMI 1640 medium plus 10% horse serum with mouse NGF (100 ng/ml). One day following plating, uridine and 5-fluorodeoxyuridine (10 μM each) were added to the cultures and left for three days to eliminate non-neuronal cells (less than 1% non-neuronal cells remain after 3 days). For survival experiments, on the sixth day following plating, NGF was removed by washing the cultures three times with RPMI 1640 medium plus 10% horse serum, followed by the addition of medium containing anti-mouse NGF (1:200, Sigma). Caspase inhibitors (Enzyme Systems Products) were added as indicated. Each culture was scored, as previously described (Troy et al., 1997), for numbers of living, phase-bright neurons present in the same field at various times. Three replicate cultures were assessed for each condition and data are normalized to numbers of neurons present in each culture at the time of NGF deprivation and reported as mean±SEM. For RNA and protein extraction on the sixth day following plating, RNA and protein were extracted using the Trizol reagent according to the manufacturer's protocol.

[2] = tested on: caspase-2-null sympathetic neurons; assay: Survival of NGF-deprived (TFD) caspase-2-null sympathetic neurons; type: cell-based, mouse; conditions: caspase-2-null neurons; for protection from TFD-induced death (survival): anti-NGF, BAF 50 μM, DEVD-FMK 10 μM; for protection from NGF withdrawal (survival): anti-NGF plus antisense oligonucleotides, scored daily for three days
Description: as §1

[3] = tested on: MIAP3; assay: Western blotting of MIAP3 after V-AMIAP3 treatment of PC12 cells; type: cell-based; conditions: within 5 hours
Description: PC12 cells were treated with V-AMIAP3 (240 nM) for 6 hours. Cells lysates containing equal amounts of protein were subjected to Western blotting using the corresponding antisera. Actin staining confirmed equal loading. These are representative blots. Similar results were obtained in 2 independent experiments.
Postnatal day 1 mouse brains were harvested in sample buffer. For antisense down-regulation studies, PC12 cells, grown as previously described, were treated with various antisense constructs for 5 hours and harvested in sample buffer. Equal amounts of protein were separated by 15% PAGE, transferred to nitrocellulose and immunostained as described (Troy et al, 2000). Anti-caspase-9 (MBL) was used at 1:1000, anti-APAF-1 (StressGen) was used at 1:1000, anti-Smac was used at 1:2000, anti-XIAP (StressGen) was used at 1:1000, anti-RAIDD (StressGen) was used at 1:500 and anti-actin (Sigma) was used at 1:200. Visualization was with ECL, using goat-anti-rabbit peroxidase at 1:1000. The relative intensities of the protein bands were quantified using Scion Image 1.55 software (NIH).

Compound | protection from TFD-induced death (survival) [1] | protection from TFD-induced death (survival) [2] | protection from NGF withdrawal (survival) [1] | protection from NGF withdrawal (survival) [2] | down-regulation of MIAP3 [3] [%]
COC(=O)CC(NC(=O)OC(C)(C)C)C(=O)CF (stereo not drawn) [BAF] | protects; also recorded: rescued | protects; also recorded: rescued |  |  | 
COC(=O)CC[C@H](NC(=O)[C@H](CC(=O)OC)NC(=O)OCc1ccccc1)C(=O)N[C@H](C(=O)N[C@@H](CC(=O)OC)C(=O)CF)C(C)C [DEVD-FMK] | provided protection only for caspase-2-null neurons; also recorded: only the caspase-2-null neurons were rescued | provided protection; also recorded: rescued |  |  | 
CTGCCGGTCCGCCTCGTCCAT (chemistry not given here) [V-ACasp9, PENETRATIN1™-linked antisense oligonucleotide to caspase-9] |  |  | no protection | protected | 
GTTAAAAGTCATCTTCTCTGG (chemistry not given here) [V-AMIAP3, PENETRATIN1™-linked antisense oligonucleotide to MIAP3] |  |  |  |  | 70
GTTGTTGTCCATGGTCACTTT (chemistry not given here) [V-ACasp3, PENETRATIN1™-linked antisense oligonucleotide to caspase-3] |  |  | no protection | protected | 
